Source: PubChem BioAssay (NCI)
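48-hour exposure; five concentrations; linearly interpolated endpoints. GI50 is the concentration that inhibits growth by half. At the TGI there is no net growth.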

Key:
Assay in all cases: NCI-60 cell line screen, 48 h
[1] = system: A549 NSCLC
[2] = system: NCI-H226 lung
[3] = system: HCC-2998 colon
[4] = system: SF-268 CNS
[5] = system: HT29 colon
[6] = system: RPMI-8226 leukemia
[7] = system: UACC-257 melanoma
[8] = system: BT-549 breast
[9] = system: UO-31 renal
[10] = system: PC-3 prostate
[11] = system: NCI-H23 lung
[12] = system: SNB-75 CNS
[13] = system: SW-620 colon
[14] = system: HS 578T breast
[15] = system: M14 melanoma
[16] = system: CAKI-1 renal
[17] = system: A498 renal
[18] = system: U251 CNS
[19] = system: SNB-19 CNS
[20] = system: SN12C renal
[21] = system: SK-MEL-5 melanoma
[22] = system: 786-0 renal
[23] = system: SR leukemia
[24] = system: HOP-92 NSCLC
[25] = system: K-562 leukemia
[26] = system: DU-145 prostate
[27] = system: MOLT-4 leukemia
[28] = system: SK-MEL-28 melanoma
[29] = system: LOX IMVI melanoma
[30] = system: OVCAR-8 ovarian
[31] = system: MDA-MB-435
[32] = system: T-47D breast
[33] = system: EKVX NSCLC
[34] = system: SF-539 CNS
[35] = system: HCT-116 colon
[36] = system: OVCAR-5 ovarian
[37] = system: CCRF-CEM leukemia
[38] = system: COLO 205 colon
[39] = system: IGROV1 ovarian
[40] = system: SK-OV-3 ovarian
[41] = system: MDA-MB-231 breast
[42] = system: OVCAR-4 ovarian
[43] = system: OVCAR-3 ovarian
[44] = system: SF-295 CNS
[45] = system: NCI-H460 lung
[46] = system: SK-MEL-2 melanoma
[47] = system: MALME-3M melanoma
[48] = system: NCI-H522 lung
[49] = system: HOP-62 NSCLC
[50] = system: HCT-15 colon
[51] = system: ACHN renal
[52] = system: NCI/ADR-RES ovarian
[53] = system: MCF7 breast
[54] = system: KM12 colon
[55] = system: UACC-62 melanoma
[56] = system: TK-10 renal
[57] = system: HL-60(TB) leukemia

## CCN1C(=O)N(CC)C2SC(N/N=C/c3cccs3)=NC21 (stereo not drawn)
[1]
  GI50: 431 nM
  TGI: > 100000 nM
[2]
  GI50: 1430 nM
  TGI: > 100000 nM
[3]
  GI50: 313 nM
  TGI: > 93800 nM
[4]
  GI50: 1710 nM
  TGI: > 100000 nM
[5]
  GI50: 260 nM
  TGI: 3200 nM
[6]
  GI50: 348 nM
  TGI: > 100000 nM
[7]
  GI50: 1050 nM
  TGI: > 100000 nM
[8]
  GI50: 211 nM
  TGI: 1270 nM
[9]
  GI50: 595 nM
  TGI: > 100000 nM
[10]
  GI50: 345 nM
  TGI: > 100000 nM
[11]
  GI50: 418 nM
  TGI: > 100000 nM
[12]
  GI50: 122 nM
[13]
  GI50: 249 nM
  TGI: > 100000 nM
[14]
  GI50: 286 nM
  TGI: > 100000 nM
[15]
  GI50: 192 nM
  TGI: > 100000 nM
[16]
  GI50: 191 nM
  TGI: > 100000 nM
[17]
  GI50: 131 nM
  TGI: 705 nM
[18]
  GI50: 318 nM
  TGI: > 32600 nM
[19]
  GI50: 428 nM
  TGI: > 100000 nM
[20]
  GI50: 653 nM
  TGI: > 100000 nM
[21]
  GI50: 523 nM
  TGI: 3360 nM
[22]
  GI50: 643 nM
  TGI: > 100000 nM
[23]
  GI50: 54.6 nM
  TGI: > 26800 nM
[24]
  GI50: 922 nM
  TGI: > 23300 nM
[25]
  GI50: 91.2 nM
  TGI: > 100000 nM
[26]
  GI50: 483 nM
  TGI: > 100000 nM
[27]
  GI50: 465 nM
  TGI: > 100000 nM
[28]
  GI50: > 19700 nM
  TGI: > 100000 nM
[29]
  GI50: 446 nM
  TGI: > 100000 nM
[30]
  GI50: 398 nM
[31]
  GI50: 33.8 nM
  TGI: 205 nM
[32]
  GI50: > 45100 nM
  TGI: > 100000 nM
[33]
  GI50: 655 nM
  TGI: > 100000 nM
[34]
  GI50: 198 nM
  TGI: 823 nM
[35]
  GI50: 281 nM
  TGI: 5430 nM
[36]
  GI50: 527 nM
  TGI: > 100000 nM
[37]
  GI50: 360 nM
  TGI: > 100000 nM
[38]
  GI50: 248 nM
  TGI: 723 nM
[39]
  GI50: 579 nM
  TGI: > 100000 nM
[40]
  GI50: 532 nM
  TGI: > 100000 nM
[41]
  GI50: 540 nM
  TGI: > 100000 nM
[42]
  TGI: > 100000 nM
[43]
  GI50: 333 nM
  TGI: 2070 nM
[44]
  GI50: 262 nM
  TGI: > 100000 nM
[45]
  GI50: 333 nM
[46]
  GI50: 360 nM
  TGI: > 100000 nM
[47]
  TGI: > 100000 nM
[48]
  GI50: 81.1 nM
  TGI: 386 nM
[49]
  GI50: 470 nM
  TGI: > 100000 nM
[50]
  GI50: 202 nM
  TGI: > 100000 nM
[51]
  GI50: 581 nM
  TGI: > 100000 nM
[52]
  GI50: 356 nM
  TGI: > 100000 nM
[53]
  GI50: 119 nM
  TGI: > 100000 nM
[54]
  GI50: 232 nM
  TGI: > 100000 nM
[55]
  GI50: 141 nM
  TGI: > 100000 nM
[56]
  TGI: > 100000 nM
[57]
  GI50: 186 nM
  TGI: 658 nM
